Laboratory results taken from US10098887B2, “Antiviral compounds and methods of use thereof” (Trana Discovery, Inc., priority 2010, dated 2018).

system: not listed separately; assay: assays described herein (not specified); settings: not given

| Structure (SMILES) | active in the assays described herein |
| --- | --- |
| CN(C)c1ccc(C(O)(c2ccc(N(C)C)cc2)c2ccc(N(C)C)cc2)cc1 [Compound 7, tris[4-(dimethylamino)phenyl]methanol] | active |
| O=C(O)CCCCC1SCC2NC(=O)NC21 (stereo not drawn) [Compound 8, 5-(2-oxohexahydro-1H-thieno[3,4-d]imidazol-4-yl)pentanoic acid] | active |
| CCc1ccc(C2=CC(=O)c3ccccc3C2=O)cc1 [Compound 26, 2-(4-ethylphenyl)naphthoquinone] | active |
| CCc1ccc(N2N=C(C)C(=Cc3ccc(N4CCOCC4)cc3)C2=O)cc1 [Compound 32, 2-(4-ethylphenyl)-5-methyl-4-[4-(4-morpholinyl)benzylidene]-2,4-dihydro-3H-pyrazol-3-one] | active |
| O=c1cc2oc3cc(O)c(O)cc3c(-c3ccc([N+](=O)[O-])o3)c-2cc1O [Compound 38, 2,6,7-trihydroxy-9-(5-nitro-2-furyl)-3H-xanthen-3-one] | active |
| CNC(=S)N1N=C(c2ccc(OC)cc2)CC1c1ccc(N(C)C)cc1 (stereo not drawn) [Compound 40, 5-[4-(dimethylamino)phenyl]-3-(4-methoxyphenyl)-N-methyl-4,5-dihydro-1H-pyrazole-1-carbothioamide] | active |
| COc1ccc(C(=C2C=CC=C2)c2ccc(OC)cc2)cc1 [Compound 46, 1,1′-(2,4-cyclopentadien-1-ylidenemethylene)bis(4-methoxybenzene)] | active |
| CCc1cc2c(=S)c(-c3ccccc3Cl)coc2cc1OC [Compound 47, 3-(2-chlorophenyl)-6-ethyl-7-methoxy-4H-chromene-4-thione] | active |
| O=C1c2ccc([N+](=O)[O-])cc2C(=O)N1C1CC2CCC1C2 (stereo not drawn) [Compound 57, 2-bicyclo[2.2.1]hept-2-yl-5-nitro-1H-isoindole-1,3(2H)-dione] | active |
| CCCOc1ccc(C2Oc3ccc(Br)cc3C=C2[N+](=O)[O-])cc1OC (stereo not drawn) [Compound 59, 6-bromo-2-(3-methoxy-4-propoxyphenyl)-3-nitro-2H-chromene] | active |
| O=C1NC(=O)N(c2ccc(Cl)cc2)C(=O)C1=Cc1ccc([N+](=O)[O-])o1 [Compound 65, 1-(4-chlorophenyl)-5-[(5-nitro-2-furyl)methylene]-2,4,6(1H,3H,5H)-pyrimidinetrione] | active |
| CCc1ccc(N2N=C(C)C(=Cc3cc(OC)c(O)c(OC)c3)C2=O)cc1 [Compound 72, 2-(4-ethylphenyl)-4-(4-hydroxy-3,5-dimethoxybenzylidene)-5-methyl-2,4-dihydro-3H-pyrazol-3-one] | active |

system: interaction between Human tRNA^Lys3 and HIV-1 genomic RNA; assay: Biochemical HIV-1 tRNA Inhibition Assay (AlphaScreen); type: binding; parameters: key: +: showing some activity; ++: intermediate activity; +++: the highest activity; settings: active compounds from high throughput screening, prioritized on IC50
Source text: The methods for detecting binding of the target RNA to the tRNA or the inhibition of such binding may be performed using any method for such detection. For example, the AlphaScreen® assay (Packard Instrument Company, Meriden, Conn.). AlphaScreen® technology is an “Amplified Luminescent Proximity Homogeneous Assay” method utilizing latex microbeads (250 nm diameter) containing a photosensitizer (donor beads), or chemiluminescent groups and fluorescent acceptor molecules (acceptor beads). Upon illumination with laser light at 680 nm, the photosensitizer in the donor bead converts ambient oxygen to singlet-state oxygen. The excited singlet-state oxygen molecules diffuse approximately 250 nm (one bead diameter) before rapidly decaying. If the acceptor bead is in close proximity to the donor bead (i.e., by virtue of the interaction of the target RNA and tRNA fragment), the singlet-state oxygen molecules reacts with chemiluminescent groups in the acceptor beads, which immediately transfer energy to fluorescent acceptors in the same bead. These fluorescent acceptors shift the emission wavelength to 520-620 nm, resulting in a detectable signal. Antagonists of the interaction of the target RNA with the tRNA fragment will thus inhibit the shift in emission wavelength, whereas agonists of this interaction would enhance it.
In the AlphaScreen configuration (FIG. 3) the assay is done in solution using the same RNA as the immobilization assay. The donor and acceptor beads are bound to their respective RNA's. During the screening the RNAs and test drugs/small molecules are incubated together and formation of the complex is measured using the AlphaScreen detection conditions. Utilization of the AlphaScreen assay may allow for the assay to be run at a lower RNA concentration at room temperature, and increase the stability of the complex.
HIV-1 has evolved to use Human tRNA^Lys3 as a primer for initiation of reverse transcription. Therefore, the interaction between tRNA^Lys3 and viral genomic RNA represents a potential novel target for HIV-1 drug development. Based on this hypothesis, a biochemical assay to identify inhibitors of the interaction between Human tRNA^Lys3 and HIV-1 genomic RNA was developed by TRANA Discovery and transferred to Southern Research Institute for high-throughput screening. This assay was developed as a homogeneous amplified luminescent proximity assay using AlphaScreen™ reagents from PerkinElmer. Based on this assay technology, the AlphaScreen™ luminescent signal serves as a mechanism for detecting the interaction between RNA molecules that represent Human tRNA^Lys3 and HIV-1 genomic RNA. The inhibition of the interaction between these RNA molecules by test compounds is detected as a decrease in the AlphaScreen™ luminescent signal.
A preliminary 15,000 compound screen (NINDS Diversity Set) was previously completed and the results were reported through NIAID contract N01-AI-70042. For the results described herein, a 101,000 compound library that was purchased from ChemBridge for the NIAID TAACF program was used. This library was carefully selected for diversity and minimal similarity to the 100,000 compound NINDS library, which is also planned to be screened using the TRANA Discovery Biochemical HIV-1 tRNA Inhibition Assay. The compounds were screened at a concentration of 12.5 μg/mL (first 3 batches) or 25 μg/mL (fourth and final batch).

| Structure (SMILES) | Activity |
| --- | --- |
| O=C1NC(=O)N(c2cccc3ccccc23)C(=O)C1=Cc1ccco1 [5-(2-furylmethylene)-1-(1-naphthyl)-2,4,6(1H,3H,5H)-pyrimidinetrione] | + |
| O=C1C(=Cc2ccc(O)c(O)c2)SC(=S)N1c1cccc(F)c1 [5-(3,4-dihydroxybenzylidene)-3-(3-fluorophenyl)-2-thioxo-1,3-thiazolidin-4-one] | ++ |
| CCN1C(=O)C(=Cc2ccc(O)c(O)c2)SC1=S [5-(3,4-dihydroxybenzylidene)-3-ethyl-2-thioxo-1,3-thiazolidin-4-one] | + |
| O=C1C(=Cc2ccc(O)c(O)c2)SC(=S)N1c1ccccc1 [5-(3,4-dihydroxybenzylidene)-3-phenyl-2-thioxo-1,3-thiazolidin-4-one] | + |
| CC(=O)N1c2ccc(C)cc2-c2c(ssc2=S)C1(C)C [5-acetyl-4,4,8-trimethyl-4,5-dihydro-1H[1,2]dithiolo[3,4-c]quinoline-1-thione] | + |
| CCOc1ccc2c(c1)-c1c(ssc1=S)C(C)(C)N2C(C)=O [5-acetyl-8-ethoxy-4,4-dimethyl-4,5-dihydro-1H-[1,2]dithiolo[3,4-c]quinoline-1-thione] | + |
| COc1ccc2c(c1)-c1c(ssc1=S)C(C)(C)N2C(C)=O [5-acetyl-8-methoxy-4,4-dimethyl-4,5-dihydro-1H-[1,2]dithiolo[3,4-c]quinoline-1-thione] | + |
| Cc1ccc(C=NNc2ccccc2[N+](=O)[O-])o1 [5-methyl-2-furaldehyde (2-nitrophenyl)hydrazone] | + |
| Cc1[nH]c(=O)[nH]c1C(=O)CCCCC(=O)O [6-(5-methyl-2-oxo-2,3-dihydro-1H-imidazol-4-yl)-6-oxohexanoic acid] | +++ |
| CCOc1ccc2c(c1)-c1c(s[s+]c1SC)C(C)(C)N2.[Cl-] [8-ethoxy-4,4-dimethyl-1-(methylthio)-4,5-dihydro[1,2]dithiolo[3,4-c]quinolin-2-ium chloride] | ++ |
| COc1ccccc1N1CCN(CC=Cc2ccc(N(C)C)cc2)CC1 [(4-{3-[4-(2-methoxyphenyl)-1-piperazinyl]-1-propen-1-yl}phenyl)dimethylamine] | + |
| Br.CCN(CC)c1ccc(Nc2nc(-c3ccccn3)cs2)cc1 [N,N-diethyl-N′-[4-(2-pyridinyl)-1,3-thiazol-2-yl]-1,4-benzenediamine hydrobromide] | + |
| Cc1ccc2nc3c(c(Nc4ccc(N(C)C)cc4)c2c1)CCC3 [N,N-dimethyl-N′-(7-methyl-2,3-dihydro-1H-cyclopenta[b]quinolin-9-yl)-1,4-benzenediamine] | + |
| Cc1nc(NC(=N)N)nc2c(C)cccc12 [N-(4,8-dimethyl-2-quinazolinyl)guanidine] | + |
| CCOc1nc(NC(=N)N)nc2c(C)cccc12 [N-(4-ethoxy-8-methyl-2-quinazolinyl)guanidine] | ++ |
| CCOc1ccc(Nc2ccc([N+](=O)[O-])c3nonc23)cc1 [N-(4-ethoxyphenyl)-7-nitro-2,1,3-benzoxadiazol-4-amine] | + |
| COc1ccc2c(C)nc(NC(=N)N)nc2c1 [N-(7-methoxy-4-methyl-2-quinazolinyl)guanidine] | + |
| CCN(CC)c1ccc(NC(=S)NC(=O)c2cccc(OC(C)C)c2)cc1 [N-({[4-(diethylamino)phenyl]amino}carbonothioyl)-3-isopropoxybenzamide] | + |
| CCN(CC)CCN(CC)Cc1ccc(N(C)C)cc1 [N-[4-(dimethylamino)benzyl]-N,N′,N′-triethyl-1,2-ethanediamine] | + |
| CCOC(=O)C(C(=O)c1ccccc1)C1=CC(=O)C(=O)c2ccc(Br)cc21 (stereo not drawn) [ethyl 2-(7-bromo-3,4-dioxo-3,4-dihydro-1-naphthalenyl)-3-oxo-3-phenylpropanoate] | + |
| CCOC(=O)c1ccc(NC2=C(N3CCOCC3)C(=O)c3ccccc3C2=O)cc1 [ethyl 4-{[3-(4-morpholinyl)-1,4-dioxo-1,4-dihydro-2-naphthalenyl]amino}benzoate] | ++ |
| CCOC(=O)c1cc(N)ccc1-c1c2ccc(=O)cc-2oc2cc(O)ccc12 [ethyl 5-amino-2-(6-hydroxy-3-oxo-3H-xanthen-9-yl)benzoate] | +++ |
| CCOC(=O)CCCCC(=O)c1[nH]c(=O)[nH]c1C [ethyl 6-(5-methyl-2-oxo-2,3-dihydro-1H-imidazol-4-yl)-6-oxohexanoate] | ++ |
| CCOC(=O)C=C1NC(c2ccccc2)=C(c2ccccc2)C1=O [ethyl (3-oxo-4,5-diphenyl-1,3-dihydro-2H-pyrrol-2-ylidene)acetate] | ++ |
| COC(=O)c1ccc(NC2=C(N3CCCC3)C(=O)c3ccccc3C2=O)cc1 [methyl 4-{[1,4-dioxo-3-(1-pyrrolidinyl)-1,4-dihydro-2-naphthalenyl]amino}benzoate] | ++ |
| COC(=O)c1ccc(NC2=C(N3CCOCC3)C(=O)c3ccccc3C2=O)cc1 [methyl 4-{[3-(4-morpholinyl)-1,4-dioxo-1,4-dihydro-2-naphthalenyl]amino}benzoate] | ++ |
| COC(=O)c1ccc(N2CCCCC2)c2c1C(=O)c1ccccc1C2=O [methyl 9,10-dioxo-4-(1-piperidinyl)-9,10-dihydro-1-anthracenecarboxylate] | ++ |
